Measured values from patent US12576059B2, “Methods and compositions for treatment of inflammatory disease” (priority 2021, dated 2026).

What was measured:
[1] = system: LPS-induced acute lung injury; assay: Example 5: response to intranasal LPS in mice fed AA diets (ALI model); format: in vivo, BALB/c and C57BL/6 mice
Description: (§1) Mouse diet was from Research Diets (New Brunswick, NJ) based on fat-free AIN-93G. Fat was added at 11.3% by weight total fat and 0.25% either normal H-AA or D-AA respectively (Table 5).
(§2) Male and Female BALB/c and C57BL/6 mice were provided with standard environmental conditions i.e., 22±1° C., 55±5% humidity and 12 h light/dark cycle with free food and water access. At the age of six weeks, animals were split into 8 groups (n=160 total, 20 of each gender) and were continuously fed ad libitum on the diet containing either H-AA or D-AA for 2, 4, 6 or 8 weeks at the daily rate of ca. 5 g of diet per mouse for the duration of the study. The other two groups of animals (n=40, 20 of each gender) received neither PUFA-enriched diets nor LPS served as controls. The body weight and food intake were measured once a week. After completing the appropriate diet course, half of the mice in each group (10 females and 10 males) (i) underwent the procedure of bronchoalveolar lavage (BAL) to accomplish cytological smears, (ii) were subjected to tissue harvesting and collection of colon contents (after humane euthanasia with lethal dose of sodium thiopental, 100 mg/kg intravenously). On the ninth week of this diet course, the other half of the group was administered 1 mg/kg of intranasal (IN) LPS from Escherichia coli O111:B4 (Sigma Aldrich) 24 hours prior to BAL and subsequent euthanasia. 40 D-AA fed animals (20 males, 20 females) were switched to the H-AA diet for washout experiments.
Cell differential counts were performed on smear slides from resuspended cell pellets of BAL, using commercially available May-Grünwald-Giemsa staining kits. All slides were evaluated in a light microscope (Optec BK5000) at ×200 magnification. These cell counts such as lymphocytes, neutrophils, plasmacytes and macrophages were obtained from 10 fields of each slide.
(§3) Lung, stomach and colon samples were fixed with 4% formaldehyde (freshly prepared from paraformaldehyde), paraffin embedded and cut into 2-4 μm sections. For routine histology, all fixed tissue sections were stained with hematoxylin-eosin (H&E). All slides were evaluated at 10 fields each using a Genetic Pro Bino light microscope (A) and photographed with a digital camera (Delta Optical). Stomach and colon tissue sections were analyzed for signs of active and chronic inflammation, formation of lymph follicles, and hyperplasia of epithelial cells. The severity of lung injury was scored according to lung pathological changes, including interalveolar and perivascular hemorrhages, peri-vascular and peribronchial infiltration, perivascular edema, thickness of alveolar wall, alveolar space value, and emphysematous transformations. Lung tissue samples were additionally stained with commercially available Martius Scarlet Blue (MSB) stain kit (Avantik, USA) for fibrin visualization. The presence of homogeneous fibrin masses of yellow, pink or red color in the lung blood vessels were interpreted as thrombotic masses.
We challenged mice fed AA-diets for 6 weeks using LPS treatment. […] Perivascular edema, signs of thrombosis, alveolar wall thickening, irregular distribution of air spaces, and focal areas of alveolar hemorrhage were also observed. We preferred intranasal administration to the more extreme intratracheal route that induces IL-1β which in turn amplifies inflammation making it difficult to distinguish between the early and late consequences of the LPS challenge. Indeed, 24 hours after intranasal administration of LPS at a dose of 1 mg/kg, there was no significant increase in the IL-1B content in BAL fluid or colon homogenates compared to animals not treated with LPS regardless of type or duration of the diets. Intranasal LPS 24 hours post administration increased neutrophils in BAL fluid in all treated groups regardless of gender or form of AA diets.

[2] = system: LPS induced acute lung inflammation; assay: Example 1: LPS induced acute lung inflammation, interalveolar septa distance; format: in vivo, mice; conditions: for Interalveolar space (average spatial distance for the interalveolar septa): 6-week course, then single intranasal LPS
From the text: LPS administration is known to promote inflammation through various mechanisms including secretion of pro-inflammatory cytokines, eicosanoids and induction of ROS. This example employed LPS to ascertain the extent of inflammation arising from ROS induced oxidation of H-AA versus D-AA in the lungs of mice. Specifically, four groups of mice were used. The first group was control mice treated with H-LA control mice. The second group of mice received a 6-week course of D-LA. It is understood that in vivo conversion of a portion of both H-LA and D-LA occurs to provide for AA and 13,13-D2-AA respectively. The third group of mice received a 6-week course of H-AA. The fourth group of mice received a 6-week course of D-AA. All groups then received a single intranasal administration of LPS to induce acute lung inflammation. The degree of the inflammatory response was based on the interalveolar septa distance where the larger the distance of the septa, the greater the degree of inflammation. The animals were sacrificed and the interalveolar septa distance was measured. Table 1 provides an average degree of spatial distance for the interalveolar septa for the results of all groups.

[3] = system: LPS induced acute lung inflammation; assay: Example 2: LPS induced inflammation, H-AA versus D-AA, male and female mice; format: in vivo; conditions: 6-week course, then single intranasal LPS
Description: LPS administration was conducted as per Example 1 above except that four groups of mice were used. The first two groups (1 and 2) were control mice (male and female). The next two groups (3 and 4) of mice received a 6-week course of H-AA (male and female). Finally, the last two groups (5 and 6) of mice received a 6-week course of D6-AA (second group). Groups 3, 4, 5 and 6 then received a single intranasal administration of LPS to induce acute lung inflammation. The degree of the inflammatory response was determined per Example 1. Next, the height and distance of the interalveolar septa was determined to provide for the surface area of the inflammation.

healthy mice = conditions: in vivo
Description: as §1
as §2, with “experiments. […]” for “experiments.”
as §3, with “masses. […]” for “masses.”
Cell free BAL fluid supernatants as well as colon tissue samples were analyzed using commercially available Mouse IL-1B ELISA Kit (R&D systems, Lot P265854, USA) and the Biotek ELx-808 microplate reader (Biotek, USA) according to the instructions recommended by the manufacturer).

LPS-treated mice lungs = assay: Example 5: H-LA / D2-LA by oral gavage, then intranasal LPS, lung histology; format: in vivo, BALB/c mice; conditions: 6 weeks of H-LA or D2-LA, then 1 mg/kg intranasal LPS, 24 hours
Description: as §3
In our first experiment, we evaluated the effects of linoleic acid (LA) supplementation on interalveolar septa thickness and AS in LPS-treated mice. […]

[4] = human, in vivo, po; cited from earlier work

| Structure (SMILES) | LPS-induced interalveolar septa / wall thickening (in words) ([1]; 6-week diet, then single intranasal LPS) | LPS-induced lung tissue damage, inflammation and emphysema (in words) ([1]; dietary consumption prior to LPS exposure) | Interalveolar space (average spatial distance for the interalveolar septa) [2] [μm] | Interalveolar space ([3]; female mice) [μm] | Interalveolar surface area ([3]; female mice) [μm^2] | Interalveolar space ([3]; male mice) [μm] | Interalveolar surface area ([3]; male mice) [μm^2] | alveolar wall thickness, H-AA versus D-AA cohorts (healthy mice; both, BALB/c and C57BL/6, mouse, 8 weeks) | alveolar spaces (healthy mice; mouse) | average thickness of interalveolar septa, H-AA versus D-AA (healthy mice; mouse) | tolerability (healthy mice; mouse) | alveolar wall / interalveolar septum thickness (in words) (LPS-treated mice lungs) | safety record [4] | reduction in the spatial distance for the interalveolar septa ([2]; D-LA relative to H-LA, comparator for D-AA not stated) [%] |
| --- | --- | --- | --- | --- | --- | --- | --- | --- | --- | --- | --- | --- | --- | --- |
| CCCCC/C=C\C/C=C\C/C=C\C/C=C\CCCC(=O)O [H-AA, arachidonic acid, reference compound] | significantly increased | did not improve and even aggravated | 9.1 | ~9.7 | ~380 | ~8.1 | ~540 | significantly (p≤0.05) thicker | No relevant changes | did not significantly differ | well tolerated without apparent adverse reactions |  |  |  |
| CCCCC/C=C\C/C=C\CCCCCCCC(=O)O [H-LA, linoleic acid] |  |  | 14.2 |  |  |  |  |  |  |  |  | significantly higher |  |  |
| [2H]C([2H])(/C=C\CCCCC)/C=C\CCCCCCCC(=O)O [D-LA, 11,11-D2-Linoleic Acid] |  |  | 10.7 |  |  |  |  |  |  |  |  | small, but statistically significant decrease | impressive safety record | ~25 |
